Experimental data as given in patent US20100261753A1, “METHODS FOR PREVENTING AND/OR TREATING DEGENERATIVE DISORDERS OF THE CENTRAL NERVOUS SYSTEM” (AMICUS THERAPEUTICS, INC., priority 2009, published 2010).
Where a name gives a salt, the structure may show the parent alone.

Legend:
GCase = biological target: T1, GCase (Homo sapiens, UniProt P04062); assay: GCase activity enhancement (EC50, Emax; Table 2B); assay type: cell-based
T1 sequence (P04062 40-536): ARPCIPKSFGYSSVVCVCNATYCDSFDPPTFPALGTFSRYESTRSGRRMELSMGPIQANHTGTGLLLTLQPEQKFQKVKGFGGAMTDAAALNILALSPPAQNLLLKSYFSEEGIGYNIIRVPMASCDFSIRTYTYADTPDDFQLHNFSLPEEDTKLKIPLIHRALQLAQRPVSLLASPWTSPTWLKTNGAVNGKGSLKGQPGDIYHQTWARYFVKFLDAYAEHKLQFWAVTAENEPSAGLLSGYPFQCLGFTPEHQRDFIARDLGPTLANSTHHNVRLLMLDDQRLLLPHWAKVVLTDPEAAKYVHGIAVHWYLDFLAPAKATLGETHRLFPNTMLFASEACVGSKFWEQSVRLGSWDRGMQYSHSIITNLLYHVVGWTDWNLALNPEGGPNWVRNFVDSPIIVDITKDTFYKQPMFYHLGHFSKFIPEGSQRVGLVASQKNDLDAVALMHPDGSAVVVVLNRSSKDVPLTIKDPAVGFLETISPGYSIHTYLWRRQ

[1] = Compound concentration in brain, spleen and plasma samples of the GCase enhancement study; assay type: in vivo, mice (C57BL/6); settings: male, C57BL/6, mouse, po, nine doses, 24-hour washout
Method: The ability of orally administered test compounds (the hydrochloride salt form of Compound A and Compound B) to elevate GCase levels as compared to reference compound, IFG-tartrate, was assessed in mice. […] Seven animals were used per dose. The dosing solutions were prepared in water. Compounds were administered over 2 weeks as follows: week 1, Mon-Fri (On), Sat-Sun (Off); week 2, Mon-Thu (On); necropsy on Friday. Thus, a total of 9 doses (dosing solutions prepared fresh every day) were given to each mouse, with a 24-hour washout between the last dose and necropsy.
Plasma was collected by spinning blood at 2700 g for 10 minutes at 4° C. Liver, spleen, lung, and brain tissues were removed, washed in cold PBS, blotted dry, flash frozen on dry ice, and stored at −80° C. until analysis. GCase levels were measured by homogenizing approximately 50 mg tissue in 500 μl McIlvane (MI) buffer (100 mM sodium citrate, 200 mM sodium phosphate dibasic, 0.25% sodium taurocholate, and 0.1% Triton X-100, pH 5.2) at pH 5.2 for 3-5 seconds on ice with a micro homogenizer. Homogenates were then incubated at room temperature without and with 2.5 mM conduritol-B-epoxide (CBE) for 30 min. Finally, 3.7 mM 4-methylumbeliferryl-β-glucoside (4-MUG) substrate was added and incubated at 37° C. for 60 min. Reactions were stopped by addition of 0.4 M glycine, pH 10.6. Fluorescence was measured on a plate reader for 1 sec/well using 355 nm excitation and 460 nm emission. Total protein was determined in lysates using the MicroBCA kit according to the manufacturer's instructions. A 4-methylumbelliferone (4-MU) standard curve ranging from 1.0 nM to 50 μM was run in parallel for conversion of raw fluorescence data to absolute GCase activity (in the presence and absence of CBE) and expressed as nanomoles of 4-MU released per milligram of protein per hour (nmol/mg protein/hr). GCase levels and protein levels were calculated using Microsoft Excel (Redmond, Wash.) and GraphPad Prism version 4.02.

Compound: Cl.O[C@@H]1[C@@H](CF)CNC[C@H]1O [Compound A-HCl, (3R,4R,5R)-5-(fluoromethyl)piperidine-3,4-diol hydrochloride]
- melting point: 200 to 202 °C

Compound: OC[C@H]1CNC[C@@H](O)[C@@H]1O [IFG-Tartrate, Isofagomine tartrate, reference compound]
- Emax (GCase): 93.6 ± 2.5%

Compound: OC[C@H]1CNC[C@@H](O)[C@@H]1O [IFG, (3R,4R,5R)-5-(hydroxymethyl)-3,4-piperidinediol, reference compound]
- concentration at 24 h ([1]; brain, 10 mg/kg, 10 mg/kg p.o., Table 4A): 49 ± 2.4 nM
- concentration at 24 h ([1]; brain, 100 mg/kg, 100 mg/kg p.o., Table 3A): 182 ± 13 nM
- concentration at 24 h ([1]; brain, 100 mg/kg, 100 mg/kg p.o., Table 4A): 287 ± 74 nM
- concentration at 24 h ([1]; plasma, 10 mg/kg, 10 mg/kg p.o., Table 4C): 67 ± 10 nM
- concentration at 24 h ([1]; plasma, 100 mg/kg, 100 mg/kg p.o., Table 3C): 330 ± 36 nM
- concentration at 24 h ([1]; plasma, 100 mg/kg, 100 mg/kg p.o., Table 4C): 852 ± 134 nM
- concentration at 24 h ([1]; spleen, 10 mg/kg, 10 mg/kg p.o., Table 4B): 150 ± 12 nM
- concentration at 24 h ([1]; spleen, 100 mg/kg, 100 mg/kg p.o., Table 3B): 711 ± 100 nM
- concentration at 24 h ([1]; spleen, 100 mg/kg, 100 mg/kg p.o., Table 4B): 1140 ± 220 nM
